Data reported in ChEMBL document CHEMBL1255229, “Novel antimicrobial peptides that exhibit activity against select agents and other drug resistant bacteria” (2010).
Values after ≈ are worked out from the molar mass of the structure shown. Starred links: 1 amine or outer side, 2 acyl side, 3 side chain; linkers in the order of their positions; H or OH if unused. Non-standard residues stand in square brackets, D forms with d. Residues, ends and D or L forms follow the SMILES beside them. ξ: configuration not given here. Pro(3ξ,4ξ-(CH2)4) = O=C(O)[C@H]1NCC2CCCCC21; X1 = O=C([C@@H]1CN([*:1])C2CCCCC21)[*:2]; X3 = O=C(C[C@H]1C2CCCCC2CN1[*:1])[*:2]; Tic = O=C(O)[C@@H]1Cc2ccccc2CN1; Orn = NCCC[C@H](N)C(=O)O; GABA = NCCCC(=O)O

What was measured:
Format in all cases: functional
Acinetobacter baumannii [1] = experiment: Antimicrobial activity against Acinetobacter baumannii ATCC 19606 after 24 hrs; conditions: ATCC 19606 = CIP 70.34 = JCM 6841, 24 h
Acinetobacter baumannii [2] = experiment: Antimicrobial activity against Acinetobacter baumannii WRAIR after 24 hrs
Staphylococcus aureus = experiment: Antimicrobial activity against methicillin-resistant Staphylococcus aureus ATCC 33591 after 24 hrs; conditions: ATCC 33591, 24 h
Yersinia pestis = experiment: Antimicrobial activity against Yersinia pestis CO92 after 24 hrs; conditions: CO92, 24 h
Brucella melitensis = experiment: Antimicrobial activity against Brucella melitensis 16 M after 24 hrs
Brucella abortus = experiment: Antimicrobial activity against Brucella abortus 2308 after 24 hrs; conditions: Brucella abortus, 2308, 24 h
Brucella suis = experiment: Antimicrobial activity against Brucella suis ATCC 23445 after 24 hrs; conditions: ATCC 23445, 24 h
Bacillus anthracis = experiment: Antimicrobial activity against Bacillus anthracis Ames after 24 hrs
Francisella tularensis = experiment: Antimicrobial activity against Francisella tularensis SCHU-S4 after 24 hrs; conditions: SCHU-S4, 24 h
Burkholderia mallei = experiment: Antimicrobial activity against Burkholderia mallei ATCC 23444 after 24 hrs; conditions: ATCC 23444, 24 h
[3] = test system: Burkholderia pseudomallei; experiment: Antimicrobial activity against Burkholderia pseudomallei BURK003(1026b) after 24 hrs

SMILES | MIC (Acinetobacter baumannii [1]) | MIC (Acinetobacter baumannii [2]) | MIC (Staphylococcus aureus) | MIC (Yersinia pestis) | MIC (Brucella melitensis) | MIC (Brucella abortus) | MIC (Brucella suis) | MIC (Bacillus anthracis) | MIC (Francisella tularensis) | MIC (Burkholderia mallei) | MIC [3]
CC1(C)S[C@@H]2[C@H](NC(=O)[C@H](N)c3ccccc3)C(=O)N2[C@H]1C(=O)O [AMPICILLIN] | 179 µM (≈ 62.5 µg/mL) | 1430 µM (≈ 500 µg/mL) | 93 µM (≈ 32.5 µg/mL) | 0.8 µM (≈ 0.28 µg/mL) | 11 µM (≈ 3.84 µg/mL) | 11 µM (≈ 3.84 µg/mL) | 0.8 µM (≈ 0.28 µg/mL) | 0.4 µM (≈ 0.14 µg/mL) | 0.09 µM (≈ 0.0314 µg/mL) | 0.09 µM (≈ 0.0314 µg/mL) | 0.09 µM (≈ 0.0314 µg/mL)
CC(=O)NCC(=O)N[C@@H](Cc1ccccc1)C(=O)N1Cc2ccccc2C[C@H]1C(=O)N1C[C@@H](C(=O)NCC(=O)N[C@@H](CCCN)C(=O)N2Cc3ccccc3C[C@H]2C(=O)N2C[C@@H](C(=O)NCC(=O)N[C@@H](Cc3ccccc3)C(=O)N3Cc4ccccc4C[C@H]3C(=O)N3C[C@@H](C(=O)NCC(=O)N[C@@H](CCCN)C(=O)N4Cc5ccccc5C[C@H]4C(=O)N[C@@H](CCCN)C(=O)N[C@@H](CCCN)C(=O)N[C@@H](CCCN)C(=O)N[C@@H](CCCN)C(N)=O)C4CCCCC43)C3CCCCC32)C2CCCCC21 (stereo not given in full) (Ac-GF[Tic][X1]G[Orn][Tic][X1]GF[Tic][X1]G[Orn][Tic][Orn][Orn][Orn][Orn]-NH2) | 6.6 µM (≈ 15.6 µg/mL) | 6.6 µM (≈ 15.6 µg/mL) | 53 µM (≈ 125 µg/mL) | 26.5 µM (≈ 62.5 µg/mL) | 106 µM (≈ 250 µg/mL) | 106 µM (≈ 250 µg/mL) | 106 µM (≈ 250 µg/mL) | 0.82 µM (≈ 1.93 µg/mL) | 106 µM (≈ 250 µg/mL) | 212 µM (≈ 500 µg/mL) | 212 µM (≈ 500 µg/mL)
CC(=O)NCC(=O)N[C@@H](Cc1ccccc1)C(=O)N1Cc2ccccc2C[C@H]1C(=O)N1C[C@@H](C(=O)NCC(=O)N[C@@H](CCCNC(=N)N)C(=O)N2Cc3ccccc3C[C@H]2C(=O)N2C[C@@H](C(=O)NCC(=O)N[C@@H](Cc3ccccc3)C(=O)N3Cc4ccccc4C[C@H]3C(=O)N3C[C@@H](C(=O)NCC(=O)N[C@@H](CCCNC(=N)N)C(=O)N4Cc5ccccc5C[C@H]4C(=O)N[C@@H](CCCNC(=N)N)C(=O)N[C@@H](CCCNC(=N)N)C(=O)N[C@@H](CCCNC(=N)N)C(=O)N[C@@H](CCCNC(=N)N)C(N)=O)C4CCCCC43)C3CCCCC32)C2CCCCC21 (stereo not given in full) (Ac-GF[Tic][X1]GR[Tic][X1]GF[Tic][X1]GR[Tic]RRRR-NH2) | 5.98 µM (≈ 15.6 µg/mL) | 24 µM (≈ 62.6 µg/mL) | 96 µM (≈ 250 µg/mL) | 192 µM (≈ 501 µg/mL) | 192 µM (≈ 501 µg/mL) | 192 µM (≈ 501 µg/mL) | 192 µM (≈ 501 µg/mL) | 5.98 µM (≈ 15.6 µg/mL) | 192 µM (≈ 501 µg/mL) | 192 µM (≈ 501 µg/mL) | 192 µM (≈ 501 µg/mL)
CC(=O)NCCCC(=O)N[C@@H](Cc1ccccc1)C(=O)N1Cc2ccccc2C[C@H]1C(=O)N1C[C@@H](C(=O)NCCCC(=O)N[C@@H](CCCCN)C(=O)N2Cc3ccccc3C[C@H]2C(=O)N2C[C@@H](C(=O)NCCCC(=O)N[C@@H](Cc3ccccc3)C(=O)N3Cc4ccccc4C[C@H]3C(=O)N3C[C@@H](C(=O)NCCCC(=O)N[C@@H](CCCCN)C(=O)N4Cc5ccccc5C[C@H]4C(=O)N[C@@H](CCCCN)C(=O)N[C@@H](CCCCN)C(=O)N[C@@H](CCCCN)C(=O)N[C@@H](CCCCN)C(=O)N[C@@H](CCCCN)C(N)=O)C4CCCCC43)C3CCCCC32)C2CCCCC21 (stereo not given in full) (Ac-[GABA]F[Tic][X1][GABA]K[Tic][X1][GABA]F[Tic][X1][GABA]K[Tic]KKKKK-NH2) | 5.8 µM (≈ 15.6 µg/mL) | 2.9 µM (≈ 7.78 µg/mL) | 46.6 µM (≈ 125 µg/mL) | 46.6 µM (≈ 125 µg/mL) | 46.6 µM (≈ 125 µg/mL) | > 186 µM | 93 µM (≈ 249 µg/mL) | 0.71 µM (≈ 1.9 µg/mL) | 186 µM (≈ 499 µg/mL) | 186 µM (≈ 499 µg/mL) | 186 µM (≈ 499 µg/mL)
CC(=O)NCC(=O)N[C@@H](Cc1ccccc1)C(=O)N[C@@H](Cc1ccccc1)C(=O)N1CC2CCCCC2[C@H]1C(=O)NCC(=O)N[C@@H](CCCCN)C(=O)N[C@@H](Cc1ccccc1)C(=O)N1CC2CCCCC2[C@H]1C(=O)NCC(=O)N[C@@H](Cc1ccccc1)C(=O)N[C@@H](Cc1ccccc1)C(=O)N1CC2CCCCC2[C@@H]1CC(=O)N[C@@H](CCCCN)C(=O)N[C@@H](Cc1ccccc1)C(=O)N[C@@H](CCCCN)C(=O)N[C@@H](CCCCN)C(=O)N[C@@H](CCCCN)C(=O)N[C@@H](CCCCN)C(N)=O (stereo not given in full) (Ac-GFF[Pro(3ξ,4ξ-(CH2)4)]GKF[Pro(3ξ,4ξ-(CH2)4)]GFF[X3]KFKKKK-NH2) | 3.2 µM (≈ 7.52 µg/mL) | 3.2 µM (≈ 7.52 µg/mL) | 208 µM (≈ 489 µg/mL) | 3.2 µM (≈ 7.52 µg/mL) | 26 µM (≈ 61.1 µg/mL) | 26 µM (≈ 61.1 µg/mL) | 26 µM (≈ 61.1 µg/mL) | 0.2 µM (≈ 0.47 µg/mL) | 0.01 µM (≈ 0.0235 µg/mL) | 208 µM (≈ 489 µg/mL) | 208 µM (≈ 489 µg/mL)
